Patent publication US11760754B2, “Heterocyclic mitochondrial activity inhibitors and uses thereof” (UNIVERSITÉ DE MONTRÉAL, priority 2017, dated 2023)

Experiments:
OCI-AML3 cells = experiment: OCI-AML3 cell growth inhibition, dose-response viability assay (CellTiterGlo); assay type: cell-based; settings: Homo sapiens, OCI-AML-3, 144 h, read-out: AML-3 EC50
Method: Cell dose-response viability assays. […] In the initial screen, compounds were added to seeded cells in serial dilutions (10 dilutions, 1:3, starting from […] 20 μM), in duplicates.
(§1) The potency of the compounds of Example 6 at inhibiting OCI-AML3 cell growth was tested using a procedure similar to that described for Mutritinib in Example 1. […] Murine MLL-AF9 leukemia cells (female cells) were generated by infection with VSV-G-pseudotyped MSCV MLL-AF9 IRES Puro (subcloned from a construct by Frédéric Barabé, Laval U, Quebec, QC, Canada).
(§2) Compounds were added to seeded cells in serial dilutions from 10 μM to 0.5 nM, in duplicates or quadruplicates.

MLL-AF9 cells = experiment: MLL-AF9 leukemia cell growth inhibition, dose-response viability assay (CellTiterGlo); assay type: cell-based, murine; settings: Mus musculus, MLL-AF9, 120 h, read-out: MLL-AF9 EC50
Method: as §1, §2

## FC(F)(F)c1cccc(/C=C/c2nc(COc3ccc(CCCCn4ccnn4)cc3)co2)c1 [Compound 49, (E)-4-((4-(4-(1H-1,2,3-triazol-1-yl)butyl)phenoxy)methyl)-2-(3-(trifluoromethyl)styryl)oxazole]
OCI-AML3 cells
  EC50: 1000 to 10000 nM
MLL-AF9 cells
  EC50: 1000 to 10000 nM

## Fc1cc(C(F)(F)F)ccc1/C=C/c1nc(COc2ccc(CCCCc3cncnc3)cc2)co1 [Compound 108, (E)-2-(2-fluoro-4-(trifluoromethyl)styryl)-4-((4-(4-(pyrimidin-5-yl)butyl)phenoxy)methyl)oxazole]
OCI-AML3 cells
  EC50: 1000 to 10000 nM
MLL-AF9 cells
  EC50: 1000 to 10000 nM

## Fc1cccnc1/C=C/c1nc(COc2ccc(CCCCn3ccnn3)cc2)co1 [Compound 85, (E)-4-((4-(4-(1H-1,2,3-triazol-1-yl)butyl)phenoxy)methyl)-2-(2-(3-fluoropyridin-2-yl)vinyl)oxazole]
OCI-AML3 cells
  EC50: 1000 to 10000 nM
MLL-AF9 cells
  EC50: 1000 to 10000 nM

## COC(=O)c1coc(COc2ccc(CCCCn3ccnn3)cc2)n1 [Compound 77, Methyl 2-((4-(4-(1H-1,2,3-triazol-1-yl)butyl)phenoxy)methyl)oxazole-4-carboxylate]
OCI-AML3 cells
  EC50: 1000 to 10000 nM
MLL-AF9 cells
  EC50: > 10000 nM

## CC(C)NC(=O)OCCc1cn(CCCCc2ccc(OCc3coc(/C=C/c4ccc(C(F)(F)F)cc4)n3)cc2)nn1 [Compound 70, (E)-2-(1-(4-(4-((2-(4-(trifluoromethyl)styryl)oxazol-4-yl)methoxy)phenyl)butyl)-1H-1,2,3-triazol-4-yl)ethyl isopropylcarbamate]
OCI-AML3 cells
  EC50: 500 to 1000 nM
MLL-AF9 cells
  EC50: 100 to 500 nM

## Fc1cc(C(F)(F)F)ccc1/C=C/c1nc(/C=C/c2ccc(CCCCn3ccnn3)cc2)co1 [Compound 111, 4-((E)-4-(4-(1H-1,2,3-triazol-1-yl)butyl)styryl)-2-((E)-2-fluoro-4-(trifluoromethyl)styryl) oxazole]
OCI-AML3 cells
  EC50: 1000 to 10000 nM
MLL-AF9 cells
  EC50: 500 to 1000 nM

## Fc1ccc2cc(-c3nc(COc4ccc(CCCCn5ccnn5)cc4)co3)sc2c1 [Compound 143, 4-((4-(4-(1H-1,2,3-triazol-1-yl)butyl)phenoxy)methyl)-2-(6-fluorobenzo[b]thiophen-2-yl)oxazole]
OCI-AML3 cells
  EC50: 1000 to 10000 nM
MLL-AF9 cells
  EC50: 100 to 500 nM

## C#CCNC(=O)c1ccc(/C=C/c2nc(COc3ccc(CCCCn4ccnn4)cc3)co2)cc1 [Compound 59, (E)-4-(2-(4-((4-(4-(1H-1,2,3-triazol-1-yl)butyl)phenoxy)methyl)oxazol-2-yl)vinyl)-N-(prop-2-yn-1-yl)benzamide]
OCI-AML3 cells
  EC50: 500 to 1000 nM
MLL-AF9 cells
  EC50: 100 to 500 nM

## NCCc1nccn1CCCCc1ccc(OCc2coc(/C=C/c3ccc(C(F)(F)F)cc3)n2)cc1 [Compound 52, (E)-2-(1-(4-(4-((2-(4-(trifluoromethyl)styryl)oxazol-4-yl)methoxy)phenyl)butyl)-1H-imidazol-2-yl)ethanamine]
OCI-AML3 cells
  EC50: 1000 to 10000 nM
MLL-AF9 cells
  EC50: 1000 to 10000 nM

## OC1(c2cn(CCCCc3ccc(OCc4coc(/C=C/c5ccc(C(F)(F)F)cc5)n4)cc3)nn2)CCCC1 [Compound 8, (E)-1-(1-(4-(4-((2-(4-(trifluoromethyl)styryl)oxazol-4-yl)methoxy)phenyl)butyl)-1H-1,2,3-triazol-4-yl)cyclopentanol]
OCI-AML3 cells
  EC50: 500 to 1000 nM
MLL-AF9 cells
  EC50: 100 to 500 nM

## O=C(CCCn1ccnn1)c1ccc(OCc2coc(/C=C/c3ccc([N+](=O)[O-])cc3F)n2)cc1 [Compound 24, (E)-1-(4-((2-(2-fluoro-4-nitrostyryl)oxazol-4-yl)methoxy)phenyl)-4-(1H-1,2,3-triazol-1-yl)butan-1-one]
OCI-AML3 cells
  EC50: 1000 to 10000 nM
MLL-AF9 cells
  EC50: 500 to 1000 nM

## N#Cc1ccc(/C=C/c2nc(COc3ccc(CCCCn4ccnn4)cc3)co2)c(F)c1 [Compound 122, (E)-4-(2-(4-((4-(4-(1H-1,2,3-triazol-1-yl)butyl)phenoxy)methyl)oxazol-2-yl)vinyl)-3-fluorobenzonitrile]
OCI-AML3 cells
  EC50: < 50 nM
MLL-AF9 cells
  EC50: < 50 nM

## Cc1oc(/C=C/c2ccc(C(F)(F)F)cc2F)nc1COc1ccc(CCCCn2ccnn2)cc1 [Compound 145, (E)-4-((4-(4-(1H-1,2,3-triazol-1-yl)butyl)phenoxy)methyl)-2-(2-fluoro-4-(trifluoromethyl)styryl)-5-methyloxazole]
OCI-AML3 cells
  EC50: 500 to 1000 nM
MLL-AF9 cells
  EC50: 100 to 500 nM

## CNCc1cn(CCCCc2ccc(OCc3coc(/C=C/c4ccc(C(F)(F)F)cc4)n3)cc2)nn1 [Compound 7, (E)-N-methyl-1-(1-(4-(4-((2-(4-(trifluoromethyl)styryl)oxazol-4-yl)methoxy)phenyl)butyl)-1H-1,2,3-triazol-4-yl)methanamine]
OCI-AML3 cells
  EC50: 1000 to 10000 nM
MLL-AF9 cells
  EC50: 500 to 1000 nM

## O=C(CCO)NCCCCc1ccc(OCc2coc(/C=C/c3ccc(C(F)(F)F)cc3)n2)cc1 [Compound 86, (E)-3-hydroxy-N-(4-(4-((2-(4-(trifluoromethyl)styryl)oxazol-4-yl)methoxy)phenyl)butyl) propanamide]
OCI-AML3 cells
  EC50: 1000 to 10000 nM
MLL-AF9 cells
  EC50: 100 to 500 nM

## CN(C)C(=O)OCCc1nccn1CCCCc1ccc(OCc2coc(/C=C/c3ccc(C(F)(F)F)cc3)n2)cc1 [Compound 53, (E)-2-(1-(4-(4-((2-(4-(trifluoromethyl)styryl)oxazol-4-yl)methoxy)phenyl)butyl)-1H-imidazol-2-yl)ethyl dimethylcarbamate]
OCI-AML3 cells
  EC50: 100 to 500 nM
MLL-AF9 cells
  EC50: 50 to 100 nM

## Fc1cccc(F)c1/C=C/c1nc(COc2ccc(CCCCn3ccnn3)cc2)co1 [Compound 46, (E)-4-((4-(4-(1H-1,2,3-triazol-1-yl)butyl)phenoxy)methyl)-2-(2,6-difluorostyryl)oxazole]
OCI-AML3 cells
  EC50: 500 to 1000 nM
MLL-AF9 cells
  EC50: 1000 to 10000 nM

## Fc1ccc2cc(-c3nc(COc4ccc(CCCCn5ccnn5)cc4)co3)oc2c1 [Compound 142, 4-((4-(4-(1H-1,2,3-triazol-1-yl)butyl)phenoxy)methyl)-2-(6-fluorobenzofuran-2-yl)oxazole]
OCI-AML3 cells
  EC50: 500 to 1000 nM
MLL-AF9 cells
  EC50: 100 to 500 nM

## Clc1ccc(/C=C/c2nc(COc3ccc(CCCCn4ccnn4)cc3)co2)cc1 [Compound 38, (E)-4-((4-(4-(1H-1,2,3-triazol-1-yl)butyl)phenoxy)methyl)-2-(4-chlorostyryl)oxazole]
OCI-AML3 cells
  EC50: 50 to 100 nM
MLL-AF9 cells
  EC50: 100 to 500 nM

## Cc1ncn(CCCCc2ccc(OCc3coc(/C=C/c4ccc(C(F)(F)F)cc4F)n3)cc2)n1 [Compound 93, (E)-2-(2-fluoro-4-(trifluoromethyl)styryl)-4-((4-(4-(3-methyl-1H-1,2,4-triazol-1-yl)butyl)phenoxy)methyl)oxazole]
OCI-AML3 cells
  EC50: 1000 to 10000 nM
MLL-AF9 cells
  EC50: 500 to 1000 nM

## Fc1cc(Cl)ccc1/C=C/c1nc(COc2ccc(CCCCn3ccnn3)cc2)co1 [Compound 116, (E)-4-((4-(4-(1H-1,2,3-triazol-1-yl)butyl)phenoxy)methyl)-2-(4-chloro-2-fluorostyryl)oxazole]
OCI-AML3 cells
  EC50: 50 to 100 nM
MLL-AF9 cells
  EC50: 50 to 100 nM

## O=S1(=O)CCN(Cc2cn(CCCCc3ccc(OCc4coc(/C=C/c5ccc(C(F)(F)F)cc5)n4)cc3)nn2)CC1 [Compound 10, (E)-4-((1-(4-(4-((2-(4-(trifluoromethyl)styryl)oxazol-4-yl)methoxy)phenyl)butyl)-1H-1,2,3-triazol-4-yl)methyl)thiomorpholine 1,1-dioxide]
OCI-AML3 cells
  EC50: 100 to 500 nM
MLL-AF9 cells
  EC50: < 50 nM

## Fc1cc(C(F)(F)F)ccc1/C=C/c1nc(CSc2ccc(CCCCn3ccnn3)cc2)co1 [Compound 146, (E)-4-(((4-(4-(1H-1,2,3-triazol-1-yl)butyl)phenyl)thio)methyl)-2-(2-fluoro-4-(trifluoromethyl)styryl)oxazole]
OCI-AML3 cells
  EC50: 1000 to 10000 nM
MLL-AF9 cells
  EC50: 100 to 500 nM

## Fc1cc(C(F)(F)F)ccc1/C=C/c1nc(COc2ccc(SCCCn3ccnn3)cc2)co1 [Compound 130, (E)-4-((4-((3-(1H-1,2,3-triazol-1-yl)propyl)thio)phenoxy)methyl)-2-(2-fluoro-4-(trifluoromethyl)styryl)oxazole]
OCI-AML3 cells
  EC50: < 50 nM
MLL-AF9 cells
  EC50: < 50 nM

## N#Cc1ccc(/C=C/c2nc(COc3ccc(CCCCn4ccnn4)cc3)co2)cc1 [Compound 37, (E)-4-(2-(4-((4-(4-(1H-1,2,3-triazol-1-yl)butyl)phenoxy)methyl)oxazol-2-yl)vinyl)benzonitrile]
OCI-AML3 cells
  EC50: 100 to 500 nM
MLL-AF9 cells
  EC50: 100 to 500 nM

## Cc1nnn(CCCCc2ccc(OCc3coc(/C=C/c4ccc(C(F)(F)F)cc4F)n3)cc2)n1 [Compound 94, (E)-2-(2-fluoro-4-(trifluoromethyl)styryl)-4-((4-(4-(5-methyl-2H-tetrazol-2-yl)butyl)phenoxy)methyl)oxazole]
OCI-AML3 cells
  EC50: 1000 to 10000 nM
MLL-AF9 cells
  EC50: 1000 to 10000 nM

## Fc1cc(C(F)(F)F)ccc1/C=C/c1nc(COc2ccc(OCCCn3ccnn3)cc2)co1 [Compound 109, (E)-4-((4-(3-(1H-1,2,3-triazol-1-yl)propoxy)phenoxy)methyl)-2-(2-fluoro-4-(trifluoromethyl)styryl)oxazole]
OCI-AML3 cells
  EC50: 500 to 1000 nM
MLL-AF9 cells
  EC50: 100 to 500 nM

## FC(F)(F)c1ccc(/C=C/c2nc(COc3ccc(CCCn4ccnn4)cc3)co2)cc1 [Compound 50, (E)-4-((4-(3-(1H-1,2,3-triazol-1-yl)propyl)phenoxy)methyl)-2-(4-(trifluoromethyl)styryl)oxazole]
OCI-AML3 cells
  EC50: 1000 to 10000 nM
MLL-AF9 cells
  EC50: 100 to 500 nM

## Clc1ccc(/C=C/c2nc(COc3ccc(CCCCn4ccnn4)cc3)co2)c(Cl)c1 [Compound 119, (E)-4-((4-(4-(1H-1,2,3-triazol-1-yl)butyl)phenoxy)methyl)-2-(2,4-dichlorostyryl)oxazole]
OCI-AML3 cells
  EC50: 100 to 500 nM
MLL-AF9 cells
  EC50: 100 to 500 nM

## CC(C)(C)OC(=O)NCCCCc1ccc(OCc2coc(/C=C/c3ccc(C(F)(F)F)cc3)n2)cc1 [Compound 79, (E)-tert-butyl (4-(4-((2-(4-(trifluoromethyl)styryl)oxazol-4-yl)methoxy)phenyl)butyl) carbamate]
OCI-AML3 cells
  EC50: 1000 to 10000 nM
MLL-AF9 cells
  EC50: 1000 to 10000 nM

## COC(=O)c1ccc(/C=C/c2nc(COc3ccc(CCCCn4ccnn4)cc3)co2)c(F)c1 [Compound 125, methyl (E)-4-(2-(4-((4-(4-(1H-1,2,3-triazol-1-yl)butyl)phenoxy)methyl)oxazol-2-yl)vinyl)-3-fluorobenzoate]
OCI-AML3 cells
  EC50: 50 to 100 nM
MLL-AF9 cells
  EC50: 100 to 500 nM
